Assay results: patent US8729125B2, “Ophthalmic compositions and methods for treating eyes” (Allergan, Inc., priority 2004, dated 2014)
Structures can show the parent of a compound that is named as a salt. Where two headings read alike, the source gives them in different places.

Columns and labels:
ERK MAP Kinase = test: Beadlyte Cell Signaling Assay, phospho:total ERK MAP kinase; assay type: cell-based, human; settings: 2 mM, Beadlyte method, FIG. 5
Method: (§1) A series of primary sub-confluent corneal epithelial cultures (grown for 12 to 14 days, about 4−5×10^5 cells/well) were washed three times with […] buffered saline (PBS) and switched to an Earle's Balanced Salt Solution (EBSS, 300 mOsmols/kg) for 24 hours before treatment. The corneal epithelial cells were cultured for 1 hour in an equal volume (2.0 mL/well) of EBSS media or 400 mOsmols/kg media by adding 53 mM NaCl or sucrose, with either L-carnitine inner salt, betaine hydrochloride, erythritol, or xylitol (all at a concentration of 2 mM) that were pre-added 60 minutes before adding NaCl or sucrose. Samples without these osmoprotectants were also prepared and tested.
(§2) The adherent cells were lysed in Beadlyte® Buffer B (included in the Beadlyte® Cell Signaling buffer kit, Upstate Biotechnology, Lake Placid, N.Y.) containing an EDTA-free protease inhibitor cocktail tablet (Roche Applied Science, Indianapolis, Ind.) for 15 minutes. The cell extracts were centrifuged at 12,000×g for 15 minutes at room temperature and the supernatants were stored at −80° C. until they were analyzed by Western blot analysis. The total protein concentrations of the cell extracts were determined using a Micro BCA protein assay kit (Pierce, Rockford, Ill.).
In another series of experiments, the Beadlyte® Cell Signaling Assay was used. This assay is a fluorescent bead-based sandwich immunoassay. […]

JNK = test: Beadlyte Cell Signaling Assay, phosphorylated:total JNK; assay type: cell-based, human; settings: 2 mM, Beadlyte method, FIG. 3
Method: as §1, §2
In another series of experiments, the Beadlyte® Cell Signaling Assay was used. This assay is a fluorescent bead-based sandwich immunoassay. Each sample (10 μg/25 μL) was pipetted into a well of a 96-well plate and incubated with 25 μL of diluted 5× beads coupled to phospho-JNK, phospho-ERK, phospho-p38 or total JNK, or total ERK, or total p38 specific capture antibodies overnight. […]
The beads were washed and mixed with biotinylated specific reporter antibodies for phospho-MAPK or total-MAPK, followed by streptavidin-phycoerythrin. The amount of total or phospho-MAPK was then quantified by the Luminex 100™ system (Luminex, Austin, Tex.). Fifty events per bead were read, and the data output obtained from the Bio-Plex Manager software were exported to Microsoft Excel® for further analysis. […]

corneal epithelial cells = test: Trans-epithelial electrical resistance (TEER) of layered air-lift corneal epithelial cultures exposed to hypertonic fluid; assay type: cell-based, rabbit; settings: for Osmoprotective benefit on TEER relative to hypertonic control, in words: 2 mM, 400 mOsmols/kg, 22 hours; for Concentration dependent effect on % TEER relative to the isotonic control: different concentrations, TEER measured 0 to 24 hours, FIG. 6
Text: In this experiment, corneal epithelial cells were isolated from the rabbit eye and grown under conditions so that they differentiate into a layered “air-lift” culture that includes basal, wing, and squamous cells. As they grow and differentiate, these cultures developed tight junctions between cells that provide the basis for a trans-epithelial electrical resistance (TEER) across the cell layers between the apical and basal surfaces. The TEER value is a sensitive measure of cell growth, differentiation and health.
After 5 days in culture during which the layered structure forms, different culture wells were exposed to hypertonic fluid (400 mOsmols/kg) with or without addition of one of 6 candidate compatible solutes at a low concentration (2 mM). The TEER was then measured after 22 hours of exposure. The TEER value was expressed as a percentage of the TEER value obtained from a similar culture under isotonic (300 mOsmol/kg) conditions.
Example 1 is repeated except that different concentrations of each of the candidate materials are used, and the TEER is measured at various times from 0 to 24 hours.
As in Example 1, the TEER variable is represented as % TEER relative to the isotonic control.
Example 4 was repeated except that compositions including combinations of compatible solutes were used. Compositions including only glycerol as a compatible solute were also tested.

[1] = Component compatibility with stabilized chlorine dioxide preservative; assay type: physicochemical
Method: A composition including betaine and stabilized chlorine dioxide, as a preservative, was tested for component compatibility. […] Thus, betaine is not useful with certain preservatives, such as stabilized chlorine dioxide. However, betaine may advantageously be employed as a compatible solute in ophthalmic compositions which use other preservative systems, or which are free of preservatives, for example, in single or unit-dose applications.

[2] = tested on: phosphorylated c-jun N-terminal kinases (p-JNK1 and p-JNK2); test: Western blot of phosphorylated JNK1 and JNK2 in primary corneal epithelial cultures under hyperosmolar stress; assay type: cell-based, human; settings: 2 mM

Compatibility with stabilized chlorine dioxide (Purite) preservative in a composition [1]	Compatibility with stabilized chlorine dioxide (Purite) preservative in a composition ([1]; listed as betaine)	Structure (SMILES)	Amount of ERK (phospho:total) relative to the hypertonic control (ERK MAP Kinase)	Amount of phospho-total JNK relative to the hypertonic control (JNK)	Osmoprotective benefit on TEER relative to hypertonic control, in words (corneal epithelial cells)	Concentration dependent effect on % TEER relative to the isotonic control (corneal epithelial cells)	Levels of p-JNK1 and p-JNK2 (Western blot) in 300 mOsmols/kg cultures ([2]; 300 mOsmols/kg EBSS media)	JNK activation (levels of p-JNK1 and p-JNK2, Western blot intensity) compared to 400 mOsmols/kg media alone ([2]; pre-added 60 minutes, 1 hour in 400 mOsmols/kg media)
–	–	OC[C@@H](O)[C@@H](O)CO [Erythritol]	reduced	reduced	best results among the polyols tested	dose-related response	–	–
–	–	OC[C@@H](O)[C@H](O)[C@@H](O)CO [Xylitol]	reduced	reduced	good results	–	–	–
incompatible	not fully compatible	C[N+](C)(C)CC(=O)O [Betaine, trimethyl glycine]	–	–	–	–	–	–
–	–	O[C@H]1[C@H](O)[C@@H](O)[C@H](O)[C@@H](O)[C@H]1O [Myo-Inositol]	–	–	good results	–	–	–
–	–	C[N+](C)(C)C[C@H](O)CC(=O)[O-] [Carnitine, L-carnitine inner salt]	–	reduced	produced the most benefit	dose-related response	less robust effect	definite decrease
